Data on 22 molecules can be found in ChEMBL document CHEMBL2412997, “Determination of the binding mode and interacting amino-acids for dibasic H3 receptor antagonists” (Bioorg Med Chem, 2013).

T1 sequence (Q9Y5N1 whole entry): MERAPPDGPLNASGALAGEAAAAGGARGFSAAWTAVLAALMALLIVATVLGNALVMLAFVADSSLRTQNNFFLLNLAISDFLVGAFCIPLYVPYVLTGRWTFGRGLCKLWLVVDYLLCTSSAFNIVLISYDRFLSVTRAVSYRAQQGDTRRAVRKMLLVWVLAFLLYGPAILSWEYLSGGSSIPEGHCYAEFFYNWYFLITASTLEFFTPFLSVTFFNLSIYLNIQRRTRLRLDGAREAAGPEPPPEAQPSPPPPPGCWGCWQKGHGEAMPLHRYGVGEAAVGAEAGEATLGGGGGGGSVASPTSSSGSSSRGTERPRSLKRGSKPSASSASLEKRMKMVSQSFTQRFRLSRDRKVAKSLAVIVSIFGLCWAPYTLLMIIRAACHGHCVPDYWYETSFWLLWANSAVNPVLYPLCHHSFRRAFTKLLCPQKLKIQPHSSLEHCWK

One test has as its target T1, Histamine H3 receptor (Homo sapiens, UniProt Q9Y5N1). The test is described as follows: Binding affinity to histamine H3 receptor (unknown origin).
As to `CCN1CCCc2cccc(OCCCN3CCCCC3)c21`, the Ki (usually a dissociation constant, usually derived from enzyme kinetics or from competition with a known ligand) was determined as 1000 nM.

Molecule `CCN1CCCc2c(OCCCN3CCCCC3)cccc21` yielded an inhibition constant Ki of 1000 nM. The molecule `N#CC(C#N)=C1N(CCCCN2CCCCC2)CCN1CCCN1CCCCC1` had a Ki of 61 nM. `c1cc(-c2ccc(CN3CCCCC3)cc2)ccc1CN1CCCCC1` came in with a Ki of 0.3 nM.

As for `c1cc(-c2ccc(CCN3CCCCC3)cc2)ccc1CCN1CCCCC1`, the Ki worked out at 1.2 nM. The molecule `N#CC(C#N)=C1N(CCCCN2CCCCC2)CCN1CCCCN1CCCCC1` returned an inhibition constant (Ki) of 56 nM.

The next test deals with T1, Histamine H3 receptor. Nature of the test: Displacement of [125I]iodoproxyfan from histamine H3 receptor (unknown origin) expressed in CHO cells. The class given is cell-based.
Take `c1cc(OCCCN2CCCCC2)ccc1CCCc1ccc(OCCCN2CCCCC2)cc1`: the affinity, expressed as Ki, was 0.9 nM. On the same count and under the same terms, as for `CN1CCN(c2ccc(-c3ccc(OCCCN4CCCCC4)cc3)cc2)CC1`, the figure is 0.23 nM; as for `c1cc(-c2ccc(OCCN3CCCCC3)cc2)ccc1OCCCN1CCCCC1`, 0.49 nM; as for `c1cc(OCCCN2CCCCC2)ccc1CCc1ccc(OCCCN2CCCCC2)cc1`, 1.21 nM. Regarding `c1cc(CN2CCCCC2)cc(-c2ccc(OCCCN3CCCCC3)cc2)c1`, the inhibitory constant (Ki) is 0.549 nM. `C(=C\c1ccc(-c2ccc(OCCCN3CCCCC3)cc2)cc1)/CN1CCCCC1` came in with an inhibition constant Ki of 0.655 nM. Regarding `C(#Cc1ccc(-c2ccc(OCCCN3CCCCC3)cc2)cc1)CN1CCCCC1`, the affinity, expressed as Ki, was 0.67 nM.

`c1cc(OCCCN2CCCCC2)ccc1Cc1ccc(OCCCN2CCCCC2)cc1` gave an inhibition constant (Ki) of 0.51 nM. The molecule `c1cc(-c2ccc(OCCCN3CCCCC3)cc2)ccc1CCCN1CCCCC1` had a Ki of 0.17 nM. As for `O=C(/C=C/c1ccc(OCCCN2CCCCC2)cc1)c1ccc(OCCCN2CCCCC2)cc1`, the Ki was found to be 0.53 nM.

Turning to `O=C(CCc1ccc(OCCCN2CCCCC2)cc1)c1ccc(OCCCN2CCCCC2)cc1`, affinity was put at a Ki of 0.64 nM. `C(=C/c1ccc(-c2ccc(OCCCN3CCCCC3)cc2)cc1)/CN1CCCCC1` registered an inhibitory constant (Ki) of 0.057 nM. Still for that read-out and setting: under `FC1(F)CCN(CCCOc2ccc(-c3ccc(OCCCN4CCCCC4)cc3)cc2)CC1` stands 9.31 nM.

In turn, `c1cc(-c2ccc(OCCCN3CCCCC3)cc2)ccc1OCCCCN1CCCCC1` displayed an inhibition constant Ki of 0.13 nM. On to `c1cc(-c2ccc(OCCCN3CCCCC3)cc2)ccc1CN1CCCCC1`, for which the inhibition constant (Ki) was determined as 1.64 nM. `c1ccc(-c2ccc(OCCCN3CCCCC3)cc2)c(CN2CCCCC2)c1` displayed an inhibition constant Ki of 0.045 nM.
